Tested on: 276233-004-R-J1-PDC complex spheroid viability
Experiment: Anticancer human tumor 276233-004-R-J1-PDC patient-derived colon adenocarcinoma cell line growth inhibition [GQUAD]
Conditions: for IC50: curve of first compound; for viability, T/C: stronger effect = lower value; active means viability on the fitted dose curve at most 10% of control; inactive means the rest
In short: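 Viability of tumor cells grown as complex spheroids with endothelial and stromal cells, exposed to drug combinations. Top concentration at or near clinical Cmax (else 10 microM), diluted in half-log increments.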

[1] = second compound 0.0316 µM, first compound 0.0316 µM
[2] = second compound 0.0316 µM, first compound 0.316 µM
[3] = second compound 0.1 µM, first compound 0.0316 µM
[4] = second compound 0.1 µM, first compound 0.316 µM
[5] = second compound 0.316 µM, first compound 0.0316 µM
[6] = second compound 0.316 µM, first compound 0.316 µM
[7] = second compound 1 µM, first compound 0.0316 µM
[8] = second compound 1 µM, first compound 0.316 µM
[9] = second compound 3.16 µM, first compound 0.0316 µM
[10] = second compound 3.16 µM, first compound 0.316 µM
[11] = second compound 10 µM, first compound 0.0316 µM
[12] = second compound 10 µM, first compound 0.316 µM
[13] = second compound 0.0316 µM, first compound 0.1 µM
[14] = second compound 0.0316 µM, first compound 1 µM
[15] = second compound 0.0316 µM, first compound 3.16 µM
[16] = second compound 0.0316 µM, first compound 10 µM
[17] = second compound 0.1 µM, first compound 0.1 µM
[18] = second compound 0.1 µM, first compound 1 µM
[19] = second compound 0.1 µM, first compound 3.16 µM
[20] = second compound 0.1 µM, first compound 10 µM
[21] = second compound 0.316 µM, first compound 0.1 µM
[22] = second compound 0.316 µM, first compound 1 µM
[23] = second compound 0.316 µM, first compound 3.16 µM
[24] = second compound 0.316 µM, first compound 10 µM
[25] = second compound 1 µM, first compound 0.1 µM
[26] = second compound 1 µM, first compound 1 µM
[27] = second compound 1 µM, first compound 3.16 µM
[28] = second compound 1 µM, first compound 10 µM
[29] = second compound 3.16 µM, first compound 0.1 µM
[30] = second compound 3.16 µM, first compound 1 µM
[31] = second compound 3.16 µM, first compound 3.16 µM
[32] = second compound 3.16 µM, first compound 10 µM
[33] = second compound 10 µM, first compound 0.1 µM
[34] = second compound 10 µM, first compound 1 µM
[35] = second compound 10 µM, first compound 3.16 µM
[36] = second compound 10 µM, first compound 10 µM
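Further: spheroids exposed to drugs for seven days.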
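Wherever viability, T/C is given: 100% = DMSO vehicle control viability.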

CC[C@@]1(O)C(=O)OCc2c1cc1n(c2=O)Cc2cc3c(CN(C)C)c(O)ccc3nc2-1 + CN(C)c1ccc(Nc2c3ccc(NC(=O)CCN4CCCC4)cc3nc3cc(NC(=O)CCN4CCCC4)ccc23)cc1
0.093 µM: IC50 (second compound 3.16 µM)
inactive: viability, T/C (second compound 0.0316 µM, first compound 0.000999 µM) 89.7% | viability, T/C (second compound 0.0316 µM, first compound 0.00316 µM) 110% | viability, T/C (second compound 0.0316 µM, first compound 0.00999 µM) 91.8% | viability, T/C [1] 103% | viability, T/C (second compound 0.0316 µM, first compound 0.0999 µM) 95.5% | viability, T/C [2] 91.2% | viability, T/C (second compound 0.1 µM, first compound 0.000999 µM) 84.2% | viability, T/C (second compound 0.1 µM, first compound 0.00316 µM) 87.7% | viability, T/C (second compound 0.1 µM, first compound 0.00999 µM) 84.9% | viability, T/C [3] 112% | viability, T/C (second compound 0.1 µM, first compound 0.0999 µM) 86.1% | viability, T/C [4] 85.4% | viability, T/C (second compound 0.316 µM, first compound 0.000999 µM) 68.2% | viability, T/C (second compound 0.316 µM, first compound 0.00316 µM) 84.2% | viability, T/C (second compound 0.316 µM, first compound 0.00999 µM) 66.5% | viability, T/C [5] 58.5% | viability, T/C (second compound 0.316 µM, first compound 0.0999 µM) 64.8% | viability, T/C [6] 82% | viability, T/C (second compound 1 µM, first compound 0.000999 µM) 62.6% | viability, T/C (second compound 1 µM, first compound 0.00316 µM) 56.4% | viability, T/C (second compound 1 µM, first compound 0.00999 µM) 66.7% | viability, T/C [7] 51.6% | viability, T/C (second compound 1 µM, first compound 0.0999 µM) 77.5% | viability, T/C [8] 57.5% | viability, T/C (second compound 3.16 µM, first compound 0.000999 µM) 64.1% | viability, T/C (second compound 3.16 µM, first compound 0.00316 µM) 61.3% | viability, T/C (second compound 3.16 µM, first compound 0.00999 µM) 56.2% | viability, T/C [9] 50% | viability, T/C (second compound 3.16 µM, first compound 0.0999 µM) 52.5% | viability, T/C [10] 46.8% | viability, T/C (second compound 10 µM, first compound 0.000999 µM) 58% | viability, T/C (second compound 10 µM, first compound 0.00316 µM) 58.5% | viability, T/C (second compound 10 µM, first compound 0.00999 µM) 46.7% | viability, T/C [11] 66.1% | viability, T/C (second compound 10 µM, first compound 0.0999 µM) 43.8% | viability, T/C [12] 39.8%
0.0881 µM: IC50 (second compound 10 µM)
> 0.316 µM: IC50 (second compound 0.0316 µM) | IC50 (second compound 0.1 µM) | IC50 (second compound 0.316 µM) | IC50 (second compound 1 µM)

O=c1[nH]cc(F)c(=O)[nH]1 + CN(C)c1ccc(Nc2c3ccc(NC(=O)CCN4CCCC4)cc3nc3cc(NC(=O)CCN4CCCC4)ccc23)cc1
inactive: viability, T/C [1] 93.7% | viability, T/C [13] 83.7% | viability, T/C [2] 108% | viability, T/C [14] 108% | viability, T/C [15] 90.2% | viability, T/C [16] 103% | viability, T/C [3] 92% | viability, T/C [17] 76.5% | viability, T/C [4] 80.5% | viability, T/C [18] 88.5% | viability, T/C [19] 75.1% | viability, T/C [20] 103% | viability, T/C [5] 69.1% | viability, T/C [21] 62.3% | viability, T/C [6] 60.1% | viability, T/C [22] 61% | viability, T/C [23] 72.2% | viability, T/C [24] 61.8% | viability, T/C [7] 66.8% | viability, T/C [25] 62.9% | viability, T/C [8] 63.7% | viability, T/C [26] 66.2% | viability, T/C [27] 52.2% | viability, T/C [28] 59.3% | viability, T/C [9] 59.3% | viability, T/C [29] 58.5% | viability, T/C [10] 54.9% | viability, T/C [30] 57.9% | viability, T/C [31] 69.8% | viability, T/C [32] 62.4% | viability, T/C [11] 49.8% | viability, T/C [33] 54.9% | viability, T/C [12] 51.5% | viability, T/C [34] 46.1% | viability, T/C [35] 51.3% | viability, T/C [36] 59.1%
> 10 µM: IC50 (second compound 0.0316 µM) | IC50 (second compound 0.1 µM) | IC50 (second compound 0.316 µM) | IC50 (second compound 1 µM) | IC50 (second compound 3.16 µM) | IC50 (second compound 10 µM)

C#Cc1c(F)ccc2cc(O)cc(-c3ncc4c(N5CC6CCC(C5)N6)nc(OCC56CCCN5CC(F)C6)nc4c3F)c12 (stereo not drawn) + Cc1[nH]c2ccc(F)cc2c1-c1nc2c3cccnc3c3ncccc3c2[nH]1
< 0.0316 µM: IC50 (second compound 3.16 µM) | IC50 (second compound 10 µM)
> 10 µM: IC50 (second compound 0.0316 µM)
2.5 µM: IC50 (second compound 0.1 µM)
inactive: viability, T/C [1] 89% | viability, T/C [13] 85.2% | viability, T/C [2] 89.2% | viability, T/C [14] 71.7% | viability, T/C [15] 57.2% | viability, T/C [16] 51.2% | viability, T/C [3] 80.2% | viability, T/C [17] 80.3% | viability, T/C [4] 82.5% | viability, T/C [18] 73.8% | viability, T/C [19] 44% | viability, T/C [20] 34.1% | viability, T/C [5] 68.4% | viability, T/C [21] 67.4% | viability, T/C [6] 57% | viability, T/C [22] 56% | viability, T/C [23] 33.8% | viability, T/C [24] 27.4% | viability, T/C [7] 70.3% | viability, T/C [25] 48.7% | viability, T/C [8] 48.7% | viability, T/C [26] 39.7% | viability, T/C [27] 40% | viability, T/C [28] 26.2% | viability, T/C [9] 19.1% | viability, T/C [29] 14.9% | viability, T/C [10] 12.7% | viability, T/C [30] 13.6% | viability, T/C [31] 9.51% | viability, T/C [32] 17.4% | viability, T/C [11] 35.7% | viability, T/C [33] 41.8% | viability, T/C [12] 35.7% | viability, T/C [34] 34.2% | viability, T/C [35] 28.1% | viability, T/C [36] 15.6%
1.13 µM: IC50 (second compound 0.316 µM)
0.208 µM: IC50 (second compound 1 µM)

CC(=O)O[C@H]1C(=O)[C@@]2(C)[C@H]([C@H](OC(=O)c3ccccc3)[C@]3(O)C[C@H](OC(=O)[C@H](O)[C@@H](NC(=O)c4ccccc4)c4ccccc4)C(C)=C1C3(C)C)[C@]1(OC(C)=O)CO[C@@H]1C[C@@H]2O + Cc1cnc(CNC(=O)c2c(=O)c3ccc(N4CCCN(C)CC4)nc3n3c2sc2ccccc23)cn1
> 10 µM: IC50 (second compound 0.0316 µM) | IC50 (second compound 0.1 µM) | IC50 (second compound 0.316 µM) | IC50 (second compound 1 µM) | IC50 (second compound 3.16 µM) | IC50 (second compound 10 µM)
inactive: viability, T/C [1] 72.5% | viability, T/C [13] 80.5% | viability, T/C [2] 90.3% | viability, T/C [14] 81.1% | viability, T/C [15] 84.1% | viability, T/C [16] 95.8% | viability, T/C [3] 80.1% | viability, T/C [17] 93.4% | viability, T/C [4] 80.8% | viability, T/C [18] 93.6% | viability, T/C [19] 86.6% | viability, T/C [20] 84.5% | viability, T/C [5] 97.5% | viability, T/C [21] 94% | viability, T/C [6] 89.9% | viability, T/C [22] 91% | viability, T/C [23] 87.7% | viability, T/C [24] 95.6% | viability, T/C [7] 76% | viability, T/C [25] 84.8% | viability, T/C [8] 88.6% | viability, T/C [26] 89.5% | viability, T/C [27] 87% | viability, T/C [28] 75.8% | viability, T/C [9] 91.5% | viability, T/C [29] 72.9% | viability, T/C [10] 80.8% | viability, T/C [30] 71.1% | viability, T/C [31] 80.3% | viability, T/C [32] 83.8% | viability, T/C [11] 59.9% | viability, T/C [33] 62.5% | viability, T/C [12] 64.9% | viability, T/C [34] 53.8% | viability, T/C [35] 51.4% | viability, T/C [36] 61.4%
